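Where inhibition never reached the appropriate level, the endpoint shown equals the highest concentration tested. Otherwise, values were interpolated linearly from a five-concentration, 48-hour dose response in 96-well plates. GI50: concentration for 50% inhibition of growth.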 Active and inactive are the calls of the source. Cut-off read from the data, not from the text of the source: active = GI50 up to about 1.1 µM and inactive = higher.
Key:
Assay in all cases: inhibition of tumour cell growth, NCI panel, 48 h
786-0 = test system: 786-0
A498 = test system: A498
A549 = test system: A549
ACHN = test system: ACHN
CAKI-1 = test system: CAKI-1
CCRF-CEM = test system: CCRF-CEM
COLO 205 = test system: COLO 205
DU-145 = test system: DU-145
EKVX = test system: EKVX
HCC 2998 = test system: HCC 2998
HCT-116 = test system: HCT-116
HCT-15 = test system: HCT-15
HL-60 = test system: HL-60
HOP-62 = test system: HOP-62
HOP-92 = test system: HOP-92
HT-29 = test system: HT-29
Hs-578T = test system: Hs-578T
IGROV-1 = test system: IGROV-1
K562 = test system: K562
KM12 = test system: KM12
LOX IMVI = test system: LOX IMVI
M14 = test system: M14
MCF7 = test system: MCF7
MDA-MB-231 = test system: MDA-MB-231
MDA-MB-435 = test system: MDA-MB-435
MDA-N = test system: MDA-N
MOLT-4 = test system: MOLT-4
Malme-3M = test system: Malme-3M
NCI-H226 = test system: NCI-H226
NCI-H23 = test system: NCI-H23
NCI-H460 = test system: NCI-H460
NCI-H522 = test system: NCI-H522
NCI/ADR-RES = test system: NCI/ADR-RES
OVCAR-3 = test system: OVCAR-3
OVCAR-4 = test system: OVCAR-4
OVCAR-5 = test system: OVCAR-5
OVCAR-8 = test system: OVCAR-8
PC-3 = test system: PC-3
RPMI-8226 = test system: RPMI-8226
RXF 393 = test system: RXF 393
SF-268 = test system: SF-268
SF-295 = test system: SF-295
SF-539 = test system: SF-539
SK-MEL-28 = test system: SK-MEL-28
SK-MEL-2 = test system: SK-MEL-2
SK-MEL-5 = test system: SK-MEL-5
SK-OV-3 = test system: SK-OV-3
SN12C = test system: SN12C
SNB-19 = test system: SNB-19
SNB-75 = test system: SNB-75
SR = test system: SR
SW-620 = test system: SW-620
T47D = test system: T47D
TK-10 = test system: TK-10
UACC-257 = test system: UACC-257
UACC-62 = test system: UACC-62
UO-31 = test system: UO-31

CCOC(=O)Nc1ccc2c(c1)c(CCCCCCc1nc3ccccc3c3ccc(NC(=O)OCC)cc13)nc1ccccc12
GI50 (786-0): 18.4 µM (inactive)
GI50 (A498): 31.3 µM (inactive)
GI50 (A549): 70 µM (inactive)
GI50 (ACHN): 39 µM (inactive)
GI50 (CAKI-1): 34.8 µM (inactive)
GI50 (CCRF-CEM): > 100 µM (inactive)
GI50 (COLO 205): > 100 µM (inactive)
GI50 (DU-145): > 100 µM (inactive)
GI50 (EKVX): < 0.01 µM (active)
GI50 (HCC 2998): > 100 µM (inactive)
GI50 (HCT-116): 54.3 µM (inactive)
GI50 (HCT-15): > 100 µM
GI50 (HL-60): > 100 µM (inactive)
GI50 (HOP-62): 27.7 µM (inactive)
GI50 (HOP-92): 21.8 µM (inactive)
GI50 (HT-29): > 100 µM (inactive)
GI50 (Hs-578T): > 100 µM (inactive)
GI50 (IGROV-1): > 100 µM (inactive)
GI50 (K562): 80 µM (inactive)
GI50 (KM12): > 100 µM (inactive)
GI50 (LOX IMVI): 21.6 µM (inactive)
GI50 (M14): 29.1 µM (inactive)
GI50 (MCF7): > 100 µM (inactive)
GI50 (MDA-MB-231): 30.5 µM (inactive)
GI50 (MDA-MB-435): 59.7 µM (inactive)
GI50 (MDA-N): 61.2 µM (inactive)
GI50 (MOLT-4): > 100 µM (inactive)
GI50 (Malme-3M): > 10 µM (inactive)
GI50 (NCI-H226): 23.9 µM (inactive)
GI50 (NCI-H23): > 100 µM (inactive)
GI50 (NCI-H460): 61.9 µM (inactive)
GI50 (NCI-H522): 22.9 µM (inactive)
GI50 (NCI/ADR-RES): 41.2 µM (inactive)
GI50 (OVCAR-3): 21.3 µM (inactive)
GI50 (OVCAR-4): 29.3 µM (inactive)
GI50 (OVCAR-5): > 100 µM (inactive)
GI50 (OVCAR-8): 25.4 µM (inactive)
GI50 (PC-3): > 100 µM (inactive)
GI50 (RPMI-8226): > 100 µM (inactive)
GI50 (RXF 393): 47.2 µM (inactive)
GI50 (SF-268): 26.5 µM (inactive)
GI50 (SF-295): 49.5 µM (inactive)
GI50 (SF-539): 12.5 µM (inactive)
GI50 (SK-MEL-28): 52.6 µM (inactive)
GI50 (SK-MEL-2): 29.9 µM (inactive)
GI50 (SK-MEL-5): 78.9 µM (inactive)
GI50 (SK-OV-3): 31.8 µM (inactive)
GI50 (SN12C): 40.6 µM (inactive)
GI50 (SNB-19): 30.1 µM (inactive)
GI50 (SNB-75): 16.3 µM (inactive)
GI50 (SR): > 100 µM (inactive)
GI50 (SW-620): > 100 µM (inactive)
GI50 (T47D): > 100 µM (inactive)
GI50 (TK-10): 26.2 µM (inactive)
GI50 (UACC-257): 47.2 µM (inactive)
GI50 (UACC-62): > 100 µM (inactive)
GI50 (UO-31): 68.4 µM (inactive)
